{"source": "paper PMC4894032", "about": "(European journal of medicinal chemistry, 2016)", "system": "carrageenan-induced mouse paw edema", "assay": "Carrageenan-induced paw edema", "assay_type": "in vivo, mouse (female C57BL/6J)", "conditions": "carrageenan-induced mouse paw inflammation; IIn treated"}
{"smiles": "CN(Cc1ccccn1)Cc1cccc(CN(C)Cc2ccccn2)n1", "note": "[IIn, N,N′-(Pyridine-2,6-diylbis(methylene))bis(N-methyl-1-(pyridin-2-yl)methanamine)]", "values": [{"measurement": "Histological analysis of paw tissue (H&E)", "result": "significantly attenuated the mouse paw inflammation and damage"}]}
